Laboratory results reported in patent US5173403A, “Thermostable acid protease from sulfolobus acidocaldarius and gene” (Oklahoma Medical Research Foundation, priority 1990, dated 1992).
Values joined by “and” are separate entries in the source; they are usually repeats but may differ in a detail not shown here. Equal entries are not always repeated. “Also recorded” adds a separate entry of the source. Where two headings read alike, the source gives them in different places. Each block holds one molecule with its values, some of them ahead of it. Numbered stars: 1 amine (or outer) side, 2 acyl side, 3 side chain; on linkers, the order of the positions; unused ones are H or OH. Square brackets hold non-standard residues; d marks the D form. Peptide text beside a SMILES is read from it. * marks the point of attachment. Sta = CC(C)C[C@H](N)[C@@H](O)CC(=O)O; Isovaleryl = CC(C)CC(=O)*; CO = O=C([*:1])[*:2]

Molecular target: T1, thermopsin, thermostable acid protease purified from Sulfolobus acidocaldarius culture medium (Sulfolobus acidocaldarius, UniProt P17118)
T1 construct: There are 41 amino acids in front of the NH2 -terminal position of thermopsin including the initiation methionine; made in house; host or cells: native enzyme purified from Sulfolobus acidocaldarius culture medium (not recombinant)
T1 sequence (P17118 42-340): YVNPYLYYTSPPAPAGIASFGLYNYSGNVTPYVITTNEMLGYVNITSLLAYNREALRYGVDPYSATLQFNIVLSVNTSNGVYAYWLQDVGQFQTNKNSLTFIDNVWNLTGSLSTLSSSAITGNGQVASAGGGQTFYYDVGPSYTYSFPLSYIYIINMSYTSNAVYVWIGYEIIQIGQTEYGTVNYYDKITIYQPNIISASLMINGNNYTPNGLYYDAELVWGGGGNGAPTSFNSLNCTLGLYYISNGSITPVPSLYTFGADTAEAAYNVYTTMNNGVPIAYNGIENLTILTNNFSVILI
Assay: Effects of proteinase inhibitors on thermopsin (preincubation with inhibitor, then 14C-hemoglobin proteolytic assay)
Type: biochemical
Settings: for remaining activity at 20 µM: 0.02 mM inhibitor in preincubation (pH 6.0, 37° C., 5 min); for remaining activity at 10 µM: 0.01 mM inhibitor in preincubation (pH 6.0, 37° C., 5 min)
Protocol: Proteolytic activity is routinely assayed using ^14 C-methylated bovine hemoglobin as substrate, as prepared according to the method of Lin, et al., J. Biol. Chem. 264,4482-4489 (1989). The assay mixture, containing 0.51% hemoglobin substrate and thermopsin in 0.1 ml of 0.1M sodium formate, pH 3.2, is placed in an Eppendorf tube. After incubation at 80° C. for a period of time between 5 to 30 min, depending on the level of activity of thermopsin used, an aliquot of 0.1 ml of 10% trichloracetic acid is added to stop the reaction and precipitate the protein. After removal of the precipitate by centrifugation, the radioactivity of an aliquot of the clear supernate is determined in a scintillation counter.
The effect of various protease inhibitors on the activity of thermopsin was tested.
Thermopsin is preincubated with the indicated level of inhibitor in 0.1 M
phosphate buffer, pH 6.0, containing 1 mM EDTA and DTT at 37° C.
for 5 min. Sodium formate (pH 3.2) and ^14 CHemoglobin is then added
to a concentration as described above. The enzyme assay is then carried
out at 80° C. for 15 min. Enzyme activity is expressed as percent

[1] = concentration not given, see Table II
[2] = assay pH 3.2, 80° C., 15 min, percent of control, read-out: Enzyme Activity (%)

SMILES: CCCCC(NC(=O)C=[N+]=[N-])C(=O)OC (racemic) [DAN, diazoacetyl-DL-norleucinemethlyester]
- remaining activity at 12000 µM (12 mM inhibitor in preincubation (pH 6.0, 37° C., 5 min), assay pH 3.2, 80° C., 15 min, percent of control, read-out: Enzyme Activity (%)): 100%
- effect of inhibitor on thermopsin activity (in words) [1]: not inactivated; also recorded: no effect

- remaining activity at 20 µM [2]: 25%
SMILES: CC(C)[C@H](NC(=O)[C@H](CCCNC(=N)N)NC(=O)N[C@@H](Cc1ccccc1)C(=O)O)C(=O)N[C@H](C=O)CCCNC(=N)N [Antipain, antipain] ({Phe-CO}-Arg-Val-Arg-aldehyde)
- effect of inhibitor on thermopsin activity (in words) [1]: inhibited; also recorded: significant inhibition

SMILES: O=C(O)CN(CCN(CC(=O)O)CC(=O)O)CC(=O)O [EDTA]
- effect of inhibitor on thermopsin activity (in words): little effect
- remaining activity at 1000 µM (read-out: Enzyme Activity (%)): 100%

- remaining activity at 20 µM [2]: 70%
SMILES: CC(C)C[C@H](NC(=O)N[C@H](C(=O)N[C@@H](CCC(N)=O)C(=O)N[C@@H](C)C=O)[C@@H]1CCNC(=N)N1)C(=O)O [Elastatinal, elastatinal]

SMILES: O=C(O)CI [Iodoacetic Acid, iodoacetic acid]
- effect of inhibitor on thermopsin activity (in words): little effect
- remaining activity at 100 µM (read-out: Enzyme Activity (%)): 74%

SMILES: CC(=O)N[C@@H](CC(C)C)C(=O)N[C@@H](CC(C)C)C(=O)N[C@H](C=O)CCCNC(=N)N [Leupeptin, leupeptin]
- remaining activity at 4 µM (0.004 mM inhibitor in preincubation (pH 6.0, 37° C., 5 min), assay pH 3.2, 80° C., 15 min, percent of control, read-out: Enzyme Activity (%)): 93%

SMILES: CCN1C(=O)C=CC1=O [N-ethylmaleimide]
- remaining activity at 100 µM (0.1 mM inhibitor in preincubation (pH 6.0, 37° C., 5 min), assay pH 3.2, 80° C., 15 min, percent of control, read-out: Enzyme Activity (%)): 95%
- effect of inhibitor on thermopsin activity (in words) [1]: little effect

SMILES: O=S(=O)(F)Cc1ccccc1 [PMSF, phenylmethylsulfonyl fluoride]
- Enzyme Activity (%) (2 mM inhibitor in preincubation (pH 6.0, 37° C., 5 min), assay pH 3.2, 80° C., 15 min, percent of control): 28%
- effect of inhibitor on thermopsin activity (in words) [1]: significantly inactivate; also recorded: significant inhibition

SMILES: CC(C)CC(=O)N[C@H](C(=O)N[C@H](C(=O)N[C@@H](CC(C)C)[C@@H](O)CC(=O)N[C@@H](C)C(=O)N[C@@H](CC(C)C)[C@@H](O)CC(=O)O)C(C)C)C(C)C [Pepstatin, pepstatin] (Isovaleryl-VV[Sta]A[Sta]-OH)
- remaining activity at 0.5 µM (0.5 μM inhibitor in preincubation (pH 6.0, 37° C., 5 min), assay pH 3.2, 80° C., 15 min, percent of control, read-out: Enzyme Activity (%)): 50%
- remaining activity at 5 µM (5 μM inhibitor in preincubation (pH 6.0, 37° C., 5 min), assay pH 3.2, 80° C., 15 min, percent of control, read-out: Enzyme Activity (%)): 16%
- effect of inhibitor on thermopsin activity (in words) [1]: strongly inhibited
- IC50 (thermopsin proteolytic activity, hemoglobin substrate, read-out: inhibitor concentration giving 50% inhibition of enzyme activity): ~500 nM and 500 nM

SMILES: Cc1ccc(S(=O)(=O)N[C@@H](CCCCN)C(=O)CCl)cc1 [TLCK, N-p-Tosyl-1-lysine chloromethyl ketone]
- remaining activity at 10 µM [2]: 78%
- effect of inhibitor on thermopsin activity (in words) [1]: much less effective

- remaining activity at 10 µM [2]: 14%
SMILES: Cc1ccc(S(=O)(=O)N[C@@H](Cc2ccccc2)C(=O)CCl)cc1 [TPCK, N-Tosyl-L-phenylalanine chloromethyl ketone]
- effect of inhibitor on thermopsin activity (in words) [1]: significantly inactivate; also recorded: significant inhibition
